Results on eleven compounds are retold here after paper PMC6152666, “Five New Limonoids from Peels of Satsuma Orange (Citrus reticulata)” (Molecules : A Journal of Synthetic Chemistry and Natural …, 2017).

Where only a bound is given, the exact number is not on record here.

One may read the IC50 as the concentration at which inhibition is half-maximal. Broadly, the viability is a read-out of living cells in per cent, often relative to untreated cells.

In data set [1] the test system is NO production in RAW264.7 mouse macrophages stimulated by lipopolysaccharide (LPS). As to the kind of experiment: Inhibitory assay of NO production in LPS-stimulated RAW264.7 macrophages. The data set is classed as cell-based. Particulars: RAW264.7 + LPS 5 μg/mL, 24 h; for Inhibitory Ratio of NO % (produced NO ratio) / activity at 30 µM: 30 μM; for Inhibitory Ratio of NO % (produced NO ratio) / activity at 1 µM / activity at 3 µM / activity at 10 µM / activity at 30 µM: vehicle control = 100%, mean ± S.E., n=4; for activity at 1 µM / activity at 3 µM / activity at 10 µM / activity at 30 µM / IC50: Mus musculus; for activity at 1 µM / activity at 3 µM / activity at 10 µM: read-out: Inhibitory Ratio of NO %; for activity at 30 µM: read-out: Inhibitory Ratio of NO % (produced NO ratio). An excerpt: Macrophages may be a potential therapeutic target for inflammatory diseases. Activated macrophages release pro-inflammatory mediators, such as NO, reactive oxygen species, interleukin-1β, tumor necrosis factor-α, and other inflammatory mediators, which play important roles in biological defense. However, the overexpression of these mediators had been implicated in diseases such as osteoarthritis, rheumatoid arthritis, and diabetes because the increased production of pro-inflammatory mediators induces severe or chronic inflammation. Isolated compounds (1–12), and N^G-monomethyl-L-arginine, acetate (L-NMMA), which is a NO synthase inhibitor and was used as a positive control, were evaluated for macrophage activation by the inhibitory assay of NO production in RAW264.7 mouse macrophages stimulated by lipopolysaccharide (LPS).
(§1) RAW264.7 cells were grown in D-MEM medium supplemented with 10% FBS and antibiotics (100 units/mL penicillin G sodium salt and 100 μg/mL streptomycin sulfate). Cells were incubated at 37 °C in a 5% CO2 humidified incubator.
An inhibitory assay of NO production was performed according to a method reported previously with slight modifications. Briefly, RAW264.7 cells (5 × 10^4 cells in 100 μL) were seeded into a 96-well microplate and incubated for 24 h. DMEM containing test samples (100 μL total volume, final concentration of 30, 10, 3, or 1 μM) dissolved in DMSO (final concentration 0.2%), and LPS (final concentration of 5 μg/mL), was added. After treatment for 24 h, the supernatant of culture medium was transferred to another 96-well microplate, and then 50 μL of 0.15% N-(1-naphtyl)ethylenediamine in H2O, and 1.5% sulfanilamide in 7.5% phosphoric acid were added. After incubation for 30 min, the absorbance of each well was read at 570 nm using a microplate reader. The optical density of vehicle control cells was assumed to be 100%.

Data set [2] is described as follows: Cytotoxicity assay (MTT) in RAW264.7 cells. The format is cell-based, mouse. The settings on record: mouse, RAW264.7 cells, RAW264.7, MTT, 24 h, vehicle control = 100%, mean ± S.E., n=4, read-out: Cell Viability %. The method, then: as §1
Cytotoxicity assay was performed according to a method reported previously Briefly, RAW264.7 cells (5 × 10^4 cells in 100 μL) were seeded onto a 96-well microplate and incubated for 24 h. DMEM containing test samples (100 μL total volume, final concentration of 30, 10, 3, or 1 μM) dissolved in DMSO (final concentration 0.2%) was added. After treatment for 24 h, MTT solution was added. After a 3-h incubation, 20% sodium dodecyl sulfate in 0.1 M HCl was added to dissolve the formazan produced in the cells. The absorbance of each well was read at 570 nm using a microplate reader. The optical density of vehicle control cells was assumed to be 100%.

With `COC(=O)CC(OC(C)=O)C1(C)C(C(C)(C)O)CC(=O)C2(C)C1CCC1(C)C(C3=CC(=O)OC3O)OC(=O)C3OC312` (centres unmarked) [Compound 3, 21,23-dihydro-21-hydroxy-23-oxonomilinic acid methyl ester], in data set [1], the “Inhibitory Ratio of NO % (produced NO ratio)” value (from here on “Inhibitory Ratio of NO %”) came to 80.3 ± 1.2 %, the activity at 1 µM is 99.4 ± 0.8%, the activity at 3 µM is 99.4 ± 2.3% and the activity at 10 µM is 94.1 ± 1.9%. In addition, in data set [1], the activity at 30 µM was 80.3% and the IC50 was > 30 µM. In addition, in data set [2], the viability at 24 h, 1 µM was 96.8%; the viability at 24 h, 3 µM amounted to 94.5%; the viability at 24 h, 10 µM came to 93.2%; the viability at 24 h, 30 µM amounted to 93.4%.
Regarding `COC1C=C([C@@H]2OC(=O)[C@H]3O[C@@]34[C@@]2(C)CC[C@@H]2[C@@]35COC(=O)C[C@@H]3OC(C)(C)[C@@H]5CC(=O)[C@]24C)C(=O)O1` (some centres unmarked) [Compound 4, 21,23-dihydro-23-methoxy-21-oxolimonin], in data set [1], the activity at 1 µM was determined as 96.2 ± 7.9%, the activity at 3 µM turned out to be 94 ± 2.7%, the activity at 10 µM was 101 ± 1.2% and the activity at 30 µM is 95.2 ± 3.4%. In addition, in data set [1], the IC50 was > 30 µM. Also, in data set [2], the viability at 24 h, 1 µM worked out at 103%; the viability at 24 h, 3 µM was determined as 97%; the viability at 24 h, 10 µM was 95.1%; the viability at 24 h, 30 µM was 91.7%.
Take `CC1(C)O[C@H]2CC(=O)OC[C@]23[C@H]2CC[C@@]4(C)[C@H](C5=CCOC5=O)OC(=O)[C@H]5O[C@]54[C@]2(C)C(=O)C[C@@H]13` [Compound 5, 21,23-Dihydro-21-oxolimonin]: in data set [1], the “Inhibitory Ratio of NO %” value stood at 83.2 ± 5.6 %, the activity at 1 µM was determined as 99.5 ± 5.6%, the activity at 3 µM came to 101 ± 4.7% and the activity at 10 µM is 93.8 ± 1.6%. Further, in data set [1], the activity at 30 µM is 83.2% and the IC50 was > 30 µM. Also, in data set [2], the viability at 24 h, 1 µM turned out to be 97.9%; the viability at 24 h, 3 µM is 97.9%; the viability at 24 h, 10 µM was 99.5%; the viability at 24 h, 30 µM turned out to be 96.6%.
For `CC1(C)O[C@H]2CC(=O)OC[C@]23[C@H]2CC[C@@]4(C)[C@H](c5ccoc5)OC(=O)[C@H]5O[C@]54[C@]2(C)C(=O)C[C@@H]13` [Compound 6, limonin], in data set [1], the activity at 1 µM is 102 ± 4.4%, the activity at 3 µM is 93.4 ± 5.7%, the activity at 10 µM was 90.9 ± 3.1% and the activity at 30 µM was 86 ± 5.5%. In addition, the IC50 in data set [1] was > 30 µM. Besides, in data set [2], the viability at 24 h, 1 µM is 100%; the viability at 24 h, 3 µM was determined as 95.6%; the viability at 24 h, 10 µM was determined as 97.2%; the viability at 24 h, 30 µM came out at 99.3%.
Take `CC1(C)O[C@H]2CC(=O)OC[C@]23[C@H]2CC[C@@]4(C)[C@H](C5=CC(=O)OC5O)OC(=O)[C@H]5O[C@]54[C@]2(C)C(=O)C[C@@H]13` (some centres unmarked) [Compound 7, shihulimonin A]: in data set [1], the activity at 1 µM turned out to be 99.8 ± 1.4%, the activity at 3 µM amounted to 99 ± 3%, the activity at 10 µM stood at 96.8 ± 2.5% and the activity at 30 µM is 93.9 ± 4%. In data set [1], the IC50 is > 30 µM. Besides, in data set [2], the viability at 24 h, 1 µM is 102%; the viability at 24 h, 3 µM was 106%; the viability at 24 h, 10 µM stood at 104%; the viability at 24 h, 30 µM worked out at 100%.
Regarding `CC1(C)O[C@H]2CC(=O)OC[C@]23[C@H]2CC[C@@]4(C)[C@H](C5=CC(O)OC5=O)OC(=O)[C@H]5O[C@]54[C@]2(C)C(=O)C[C@@H]13` (some centres unmarked) [Compound 8, limonexic acid], in data set [1], the “Inhibitory Ratio of NO %” value is given as 76.0 ± 2.2 %, the activity at 1 µM is 97.2 ± 1.1%, the activity at 3 µM amounted to 94.7 ± 2.4% and the activity at 10 µM amounted to 90.9 ± 1.6%. Also, in data set [1], the activity at 30 µM stood at 76% and the IC50 was > 30 µM. Besides, in data set [2], the viability at 24 h, 1 µM was found to be 98.1%; the viability at 24 h, 3 µM came to 97.6%; the viability at 24 h, 10 µM is 92%; the viability at 24 h, 30 µM came to 89.3%.
As for `COC1OC(OC)C2(C3OC(=O)C4OC45C3(C)CCC3C46COC(=O)CC4OC(C)(C)C6CC(=O)C35C)OC12` (centres unmarked) [Compound 9, evolimorutanin], in data set [1], the activity at 1 µM was 94.3 ± 4.3%, the activity at 3 µM turned out to be 85.2 ± 6.4%, the activity at 10 µM was found to be 91.3 ± 2.8% and the activity at 30 µM amounted to 89.9 ± 3.2%. In addition, the IC50 in data set [1] is > 30 µM. Further, in data set [2], the viability at 24 h, 1 µM came to 101%; the viability at 24 h, 3 µM was found to be 97.7%; the viability at 24 h, 10 µM came out at 101%; the viability at 24 h, 30 µM amounted to 97.6%.
As for `CC1(C)OC(=O)C=C[C@]2(C)[C@H]3CC[C@@]4(C)[C@H](C5=CC(=O)OC5O)OC(=O)[C@H]5O[C@]54[C@]3(C)C(=O)C[C@@H]12` (some centres unmarked) [Compound 10, kihadanin A], in data set [1], the activity at 1 µM is 95 ± 4.2%, the activity at 3 µM turned out to be 96.8 ± 1.3%, the activity at 10 µM worked out at 97.7 ± 2.2% and the activity at 30 µM is 86.6 ± 1.6%. In data set [1], the IC50 is > 30 µM. Further, in data set [2], the viability at 24 h, 1 µM came out at 105%; the viability at 24 h, 3 µM came to 102%; the viability at 24 h, 10 µM came to 98.9%; the viability at 24 h, 30 µM is 98.6%.
On to `CC1(C)OC(=O)C[C@H](O)[C@]2(C)[C@H]3CC[C@@]4(C)[C@H](c5ccoc5)OC(=O)[C@H]5O[C@]54[C@]3(C)C(=O)C[C@@H]12` [Compound 11, deacetylnomilin], for which, in data set [1], the “Inhibitory Ratio of NO %” value came to 78.1 ± 3.4 %, the activity at 1 µM was found to be 104 ± 3.1%, the activity at 3 µM was 93.2 ± 3.2% and the activity at 10 µM came out at 84.7 ± 3.2%. In data set [1], the activity at 30 µM worked out at 78.1% and the IC50 was > 30 µM. Also, in data set [2], the viability at 24 h, 1 µM amounted to 95.9%; the viability at 24 h, 3 µM is 100%; the viability at 24 h, 10 µM was found to be 99.3%; the viability at 24 h, 30 µM was found to be 100%.
Take `CC(C)(O)[C@@H]1CC(=O)[C@]2(C)[C@H](CC[C@@]3(C)[C@H](c4ccoc4)OC(=O)[C@H]4O[C@]432)[C@]12COC(=O)C[C@@H]2O` [Compound 12, ichangin]: in data set [1], the “Inhibitory Ratio of NO %” value was found to be 73.9 ± 3.4 %, the activity at 1 µM worked out at 107 ± 4.1%, the activity at 3 µM came out at 92.6 ± 3.2% and the activity at 10 µM turned out to be 88.4 ± 5.5%. Also, in data set [1], the activity at 30 µM came out at 73.9% and the IC50 was > 30 µM. For the same compound, in data set [2], the viability at 24 h, 1 µM amounted to 101%; the viability at 24 h, 3 µM amounted to 98.1%; the viability at 24 h, 10 µM worked out at 98.3%; the viability at 24 h, 30 µM was found to be 98.3%.
Regarding `[H]/N=C(/NC)NCCC[C@H](N)C(=O)O` [L-NMMA, N^G-monomethyl-L-arginine, acetate, reference compound], in data set [1], the activity at 1 µM amounted to 93.3 ± 2.2%, the activity at 3 µM is 91.4 ± 0.8%, the activity at 10 µM was 68.9 ± 4.5% and the activity at 30 µM was determined as 43.1 ± 1.1%. In data set [1], the IC50 stood at 23.9 µM. In data set [2], the viability at 24 h, 1 µM turned out to be 102%; the viability at 24 h, 3 µM is 102%; the viability at 24 h, 10 µM was found to be 98.5%; the viability at 24 h, 30 µM stood at 109%.
